Results: US9522920B2, “Bromodomain inhibitors and uses thereof” (Constellation Pharmaceuticals, Inc., priority 2010, dated 2016)
Read-outs that look alike come from different tables or passages of the source.

Experiments:
MYC mRNA = assay: cMyc RNA quantification assay (QuantiGene) in Raji cells; format: cell-based; details: 4 h
Description: MV4:11 (AML) or Raji (Burkitt's lymphoma) cells were seeded in a 96-well plate and incubated in the presence of various concentrations of compounds for 4 h. Relative mRNA levels were quantitated by using QuantiGene 2.0 assay (Affymetrix) according to the manufacturer's recommendation. Signals were detected by using an Envision plate reader (Perkin-Elmer). Biological duplicates were averaged and normalized to vehicle (DMSO) control to calculate percent MYC mRNA levels.

BRD4(BD1) = biological target: T1, BRD4(BD1) (Homo sapiens, UniProt O60885); assay: BRD4 AlphaLisa binding assay (Alphascreen)
T1 construct: His; made in house
Description: Specifically, in a 384 well ProxiPlate BRD4(BD1) (30 nM final) was combined with peptide (200 nM final) in 40 mM HEPES (pH 7.0), 40 mM NaCl, 1 mM DTT, 0.01% (w/v) BSA, and 0.008% (w/v) Brij-35 either in the presence of DMSO (final 1.2% DMSO) or compound dilution series in DMSO. After 20 minute incubation at room temperature Alpha streptavidin donor beads and AlphaLisa anti-Flag acceptor beads were added to a final concentration of 10 ug/mL each. After three hours equilibration plates were read on an Envision instrument and IC50s calculated using a four parameter non-linear curve fit.

IL-6 secretion = assay: Cell-based IL-6 quantification assay (ELISA, Mesoscale) in LPS-stimulated THP-1 cells; details: read-out: IL6
Description: 100,000 THP-1 cells were seeded in RPMI1640-10% FBS in 96-well plates. LPS (E. Coli Invitrogen) in RPMI-10% FBS at a final concentration of 4 μg/mL was added to the wells and the cells are then incubated in the presence of various concentrations of compounds for 16 h. Plates are spun ([…], 5 min), an aliquot of 25 uL supernatant is transferred in to an ELISA plate (Mesoscale technology, MSD) and the detection of IL-6 is performed using manufacturer's instructions. The amount of cells in each well is assessed using CellTiter-Glo® (Promega). The ratio of ELISA value/CellTiter-Glo value is used to calculate the percent of inhibition of IL-6 secretion.

[1] = Homo sapiens, Table 7, Raji (Burkitt's lymphoma) cells
[2] = Table 6, BRD4(BD1) 30 nM, H4-tetraacetyl peptide 200 nM, read-out: BRD4 Alphascreen IC50
[3] = Table 7, Raji (Burkitt's lymphoma) cells
[4] = Table 7, THP-1 cells, LPS 4 μg/mL, 16 h, normalised to CellTiter-Glo
[5] = Homo sapiens, THP-1, 16 h, Table 7, THP-1 cells, LPS 4 μg/mL, 16 h, normalised to CellTiter-Glo
[6] = Homo sapiens, Table 14, Raji cells
[7] = Table 14, BRD4 AlphaLisa Binding Assay, read-out: Alpha screen
[8] = Homo sapiens, THP-1, 16 h, Table 14, THP-1 cells, LPS, 16 h

IC50 (MYC mRNA; [1])	IC50 (BRD4(BD1); [2])	Compound	IC50 (IL-6 secretion; [5])	also measured
	< 500 nM	CCNC(=O)C[C@@H]1N=C(c2ccc(C#N)cc2)c2cc(Cl)ccc2-c2c(C)noc21 [Compound 143]		IC50 (MYC mRNA; [3]): 500 to 1000 nM; IC50 (IL-6 secretion; [4]): < 500 nM
< 500 nM	< 500 nM	Cc1noc2c1-c1sc(C)c(C)c1C(c1ccc(Cl)cn1)=NC2CC(N)=O (stereo not shown) [Compound 103]	< 500 nM	
< 500 nM	< 500 nM	Cc1noc2c1-c1sc(C)c(C)c1C(c1ccccc1)=NC2CC(N)=O (stereo not shown) [Compound 108]	< 500 nM	
	< 500 nM	Cc1noc2c1-c1cccc(Cl)c1C(c1ccc(C#N)cc1)=N[C@H]2CC(N)=O [Compound 140]		IC50 (MYC mRNA; [3]): < 500 nM; IC50 (IL-6 secretion; [4]): < 500 nM
	< 500 nM	COc1ccc(C2=N[C@@H](CC(N)=O)c3onc(C)c3-c3cccc(C)c32)cc1 [Compound 135]		IC50 (MYC mRNA; [3]): < 500 nM; IC50 (IL-6 secretion; [4]): < 500 nM
	< 500 nM	Cc1cccc2c1C(c1ccc(C(N)=O)cc1)=N[C@@H](CC(N)=O)c1onc(C)c1-2 [Compound 134]		IC50 (MYC mRNA; [3]): 500 to 1000 nM; IC50 (IL-6 secretion; [4]): < 500 nM
< 500 nM	< 500 nM	Cc1noc2c1-c1sc(C)c(C)c1C(c1ccc(C#N)cc1)=NC2CC(N)=O (stereo not shown) [Compound 115]	< 500 nM	
> 1000 nM	< 500 nM	CCNC(=O)C[C@@H]1N=C(c2ccc(Cl)cc2)c2ccccc2-c2c1noc2C [Compound 163, 2-((4S)-6-(4-chlorophenyl)-1-methyl-4H-benzo[c]isoxazolo[4,3-e]azepin-4-yl)-N-ethylacetamide]	< 500 nM	
	< 500 nM	Cc1noc2c1-c1ccc(Cl)cc1C(c1ccc(C#N)cc1)=N[C@H]2CC(N)=O [Compound 142]		IC50 (MYC mRNA; [3]): 500 to 1000 nM; IC50 (IL-6 secretion; [4]): < 500 nM
> 1000 nM	< 500 nM	Cc1noc2c1-c1sc(C)c(C)c1C(c1ccc(Cl)cc1)=N[C@H]2Cc1nccs1 [Compound 188, (6S)-4-(4-chlorophenyl)-2,3,9-trimethyl-6-(thiazol-2-ylmethyl)-6H-isoxazolo[5,4-c]thieno[2,3-e]azepine]	< 500 nM	
< 500 nM	< 500 nM	CC(=O)Nc1ccc(C2=NC(CC(N)=O)c3onc(C)c3-c3sc(C)c(C)c32)cc1 (stereo not shown) [Compound 118]	< 500 nM	
		Cc1noc2c1-c1ccccc1C(c1ccc(Cl)cc1)=N[C@H]2CC(=O)NCCF [Compound 199]		IC50 (MYC mRNA; [6]): < 500 nM; IC50 (BRD4(BD1); [7]): < 500 nM; IC50 (IL-6 secretion; [8]): < 500 nM
< 500 nM	< 500 nM	Cc1cc(Cl)ccc1C1=NC(CC(N)=O)c2onc(C)c2-c2sc(C)c(C)c21 (stereo not shown) [Compound 112]	< 500 nM	
< 500 nM	< 500 nM	Cc1noc2c1-c1sc(C)c(C)c1C(c1ccc(F)cc1)=NC2CC(N)=O (stereo not shown) [Compound 109]	< 500 nM	
> 1000 nM	< 500 nM	Cc1noc2c1-c1sc(C)c(C)c1C(C1CCCCC1)=NC2CC(N)=O (stereo not shown) [Compound 126]	< 500 nM	
	< 500 nM	Cc1noc2c1-c1cccc(Cl)c1C(c1ccc(F)cc1)=N[C@H]2CC(N)=O [Compound 138]		IC50 (MYC mRNA; [3]): < 500 nM; IC50 (IL-6 secretion; [4]): < 500 nM
< 500 nM	< 500 nM	CCNC(=O)CC1N=C(c2ccc(C#N)cc2)c2c(sc(C)c2C)-c2c(C)noc21 (stereo not shown) [Compound 113]	< 500 nM	
500 to 1000 nM	< 500 nM	Cc1noc2c1-c1sc(C)c(C)c1C(c1ccc(=O)n(C)c1)=NC2CC(N)=O (stereo not shown) [Compound 120]	< 500 nM	
		Cc1noc2c1-c1ccc(OC(F)(F)F)cc1C(c1ccc(Cl)cc1)=N[C@H]2CC(N)=O [Compound 197]		IC50 (MYC mRNA; [6]): < 500 nM; IC50 (BRD4(BD1); [7]): < 500 nM; IC50 (IL-6 secretion; [8]): < 500 nM

IC50 (MYC mRNA; [1])	IC50 (BRD4(BD1); [2])	Compound	IC50 (IL-6 secretion; [5])	also measured
	< 500 nM	Cc1cccc2c1C(c1ccncc1)=N[C@@H](CC(N)=O)c1onc(C)c1-2 [Compound 131]		IC50 (MYC mRNA; [3]): < 500 nM; IC50 (IL-6 secretion; [4]): < 500 nM
		Cc1noc2c1-c1ccccc1C(c1ccc(F)cn1)=N[C@H]2CC(N)=O [Compound 196]		IC50 (MYC mRNA; [6]): > 1000 nM; IC50 (BRD4(BD1); [7]): > 1000 nM; IC50 (IL-6 secretion; [8]): 500 to 1000 nM
500 to 1000 nM	< 500 nM	CCNc1nccc2c1C(c1ccc(Cl)cc1)=NCc1onc(C)c1-2 [Compound 174, 6-(4-Chlorophenyl)-N-ethyl-1-methyl-4H-isoxazolo[5,4-c]pyrido[4,3-e]azepin-7-amine]	< 500 nM	
		Cc1noc2c1-c1ccc(Cl)cc1C(c1ccc(C(F)(F)F)cc1)=N[C@H]2CC(N)=O [Compound 201]		IC50 (MYC mRNA; [6]): 500 to 1000 nM; IC50 (BRD4(BD1); [7]): < 500 nM; IC50 (IL-6 secretion; [8]): < 500 nM
	< 500 nM	CCNC(=O)C[C@@H]1N=C(c2ccc(C#N)cc2)c2ccccc2-c2c(C)noc21 [Compound 149]		IC50 (MYC mRNA; [3]): < 500 nM; IC50 (IL-6 secretion; [4]): < 500 nM
< 500 nM	< 500 nM	CCOC(=O)NC1N=C(c2ccc(Cl)cc2)c2ccccc2-c2c1noc2C (stereo not shown) [Compound 155, Ethyl (6-(4-chlorophenyl)-1-methyl-4H-benzo[c]isoxazolo[4,3-e]azepin-4-yl)carbamate]	500 to 1000 nM	
< 500 nM	< 500 nM	COc1ccc(C2=N[C@@H](CC(N)=O)c3onc(C)c3-c3ccccc32)cc1 [Compound 146]	< 500 nM	
< 500 nM	< 500 nM	CCNC(=O)C[C@@H]1N=C(c2ccc(Cl)cc2)c2cc(OC)ccc2-c2c(C)noc21 [Compound 160, 2-((4S)-6-(4-chlorophenyl)-8-methoxy-1-methyl-4H-benzo[c]isoxazolo[4,5-e]azepin-4-yl)-N-ethylacetamide]	< 500 nM	
	< 500 nM	COCCNC(=O)C[C@@H]1N=C(c2ccc(C#N)cc2)c2ccccc2-c2c(C)noc21 [Compound 150]		IC50 (MYC mRNA; [3]): < 500 nM; IC50 (IL-6 secretion; [4]): < 500 nM
	< 500 nM	Cc1cccc2c1C(c1ccc(Cl)cn1)=N[C@@H](CC(N)=O)c1onc(C)c1-2 [Compound 133]		IC50 (MYC mRNA; [3]): 500 to 1000 nM; IC50 (IL-6 secretion; [4]): < 500 nM
< 500 nM	< 500 nM	CCNC(=O)C[C@@H]1N=C(c2ccc(Cl)cc2)c2ccccc2-c2c(C)noc21 [Compound 159, 2-((4S)-6-(4-chlorophenyl)-1-methyl-4H-benzo[c]isoxazolo[4,5-e]azepin-4-yl)-N-ethylacetamide]	< 500 nM	
> 1000 nM	< 500 nM	CCCC1=NC(CC(N)=O)c2onc(C)c2-c2sc(C)c(C)c21 (stereo not shown) [Compound 124]	500 to 1000 nM	
< 500 nM	< 500 nM	Cc1noc2c1-c1sc(C)c(C)c1C(c1ccc(C(N)=O)cc1)=NC2CC(N)=O (stereo not shown) [Compound 116]	< 500 nM	
		Cc1noc2c1-c1ccc(Cl)cc1C(c1ccc(C(F)(F)F)cc1)=N[C@H]2CC(=O)O [Compound 200]		IC50 (MYC mRNA; [6]): > 1000 nM; IC50 (BRD4(BD1); [7]): > 1000 nM; IC50 (IL-6 secretion; [8]): > 1000 nM
		Cc1noc2c1-c1sc(C)c(C)c1C(c1cscn1)=N[C@H]2CC(N)=O [Compound 198]		IC50 (MYC mRNA; [6]): 500 to 1000 nM; IC50 (BRD4(BD1); [7]): < 500 nM; IC50 (IL-6 secretion; [8]): < 500 nM
> 1000 nM	> 1000 nM	Cc1noc2c1-c1ccccc1C(N1CCOCC1)=N[C@H]2CC(N)=O [Compound 152]	> 1000 nM	
		Cc1noc2c1-c1ccccc1C(c1ccc(Cl)cc1)=N[C@H]2CC(=O)NC(C)(C)C [Compound 205]		IC50 (MYC mRNA; [6]): > 1000 nM; IC50 (BRD4(BD1); [7]): < 500 nM; IC50 (IL-6 secretion; [8]): < 500 nM
	> 1000 nM	Cc1noc2c1-c1ccn(-c3ccc(C#N)cc3)c(=O)c1C(c1ccc(Cl)cc1)=NC2 [Compound 178, 4-(6-(4-Chlorophenyl)-1-methyl-7-oxo-4H-isoxazolo[5,4-c]pyrido[4,3-e]azepin-8(7H)-yl)benzonitrile]	> 1000 nM	
		CCNC(=O)NC1N=C(c2ccc(C#N)cc2)c2ccccc2-c2c(C)noc21 (stereo not shown) [compound 261]		IC50 (BRD4(BD1); [7]): < 500 nM; IC50 (IL-6 secretion; Table 14, THP-1 cells, LPS, 16 h): < 500 nM

Compound	IC50 (MYC mRNA; [1])	IC50 (BRD4(BD1); [2])	IC50 (IL-6 secretion; [5])	also measured
Cc1noc2c1-c1ccnc(N)c1C(c1ccc(Cl)cc1)=NC2 [Compound 172, 6-(4-Chlorophenyl)-1-methyl-4H-isoxazolo[5,4-c]pyrido[4,3-e]azepin-7-amine]	500 to 1000 nM	< 500 nM		IC50 (IL-6 secretion; Homo sapiens, THP-1, 16 h): < 500 nM
Cc1noc2c1-c1sc(C)c(C)c1C(c1ccc(Cl)cc1)=N[C@H]2Cc1ncc[nH]1 [Compound 187, (6S)-6-((1H-imidazol-2-yl)methyl)-4-(4-chlorophenyl)-2,3,9-trimethyl-6H-isoxazolo[5,4-c]thieno[2,3-e]azepine]	> 1000 nM	< 500 nM		IC50 (IL-6 secretion; Homo sapiens, THP-1, 16 h): > 1000 nM
